21 compounds from ChEMBL document CHEMBL1140804, “Design, synthesis and evaluation of trifluoromethane sulfonamide derivatives as new potent and selective peroxisome proliferator-activated receptor alpha agonists” (Bioorg Med Chem Lett, 2008) can be followed below.

pEC50: −log10 of the molar value. Some results are limits rather than exact numbers.

The target of assay [1] is T1, Peroxisome proliferator-activated receptor alpha (Homo sapiens, UniProt Q07869).
T1 sequence (Q07869 whole entry): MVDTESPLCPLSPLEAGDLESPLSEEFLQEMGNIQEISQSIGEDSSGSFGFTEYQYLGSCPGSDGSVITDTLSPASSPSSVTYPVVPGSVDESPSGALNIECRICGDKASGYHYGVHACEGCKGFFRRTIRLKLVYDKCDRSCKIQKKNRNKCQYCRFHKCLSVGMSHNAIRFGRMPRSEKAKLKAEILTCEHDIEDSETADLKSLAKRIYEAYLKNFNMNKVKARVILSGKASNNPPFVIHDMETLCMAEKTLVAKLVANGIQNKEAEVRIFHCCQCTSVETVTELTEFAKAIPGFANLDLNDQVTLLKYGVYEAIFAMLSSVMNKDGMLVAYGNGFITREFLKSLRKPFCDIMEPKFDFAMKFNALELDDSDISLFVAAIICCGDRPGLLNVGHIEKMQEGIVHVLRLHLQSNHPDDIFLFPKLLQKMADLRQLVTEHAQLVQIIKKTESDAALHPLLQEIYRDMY
Description: Agonist activity at human PPARalpha assessed as receptor activation by cell based assay

For assay [2], the target named is T2, Peroxisome proliferator-activated receptor alpha (Mus musculus, UniProt P23204).
T2 sequence (P23204 whole entry): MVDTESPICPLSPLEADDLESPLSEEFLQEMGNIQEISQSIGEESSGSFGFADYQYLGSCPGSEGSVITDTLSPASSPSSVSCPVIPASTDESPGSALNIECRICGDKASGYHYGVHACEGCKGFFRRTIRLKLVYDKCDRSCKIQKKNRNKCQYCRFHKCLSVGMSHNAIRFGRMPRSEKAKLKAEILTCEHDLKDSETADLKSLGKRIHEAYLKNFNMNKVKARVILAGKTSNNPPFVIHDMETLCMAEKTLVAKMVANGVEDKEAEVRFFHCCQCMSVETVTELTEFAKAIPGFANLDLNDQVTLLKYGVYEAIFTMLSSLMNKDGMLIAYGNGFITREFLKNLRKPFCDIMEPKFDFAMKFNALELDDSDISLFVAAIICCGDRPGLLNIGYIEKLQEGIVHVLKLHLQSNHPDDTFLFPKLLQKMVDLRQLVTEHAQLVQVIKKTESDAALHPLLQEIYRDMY
Description: (§1) Agonist activity at mouse PPARalpha assessed as receptor activation by cell based assay

For assay [3], the target named is T3, Peroxisome proliferator-activated receptor delta (Homo sapiens, UniProt Q03181).
T3 sequence (Q03181 whole entry): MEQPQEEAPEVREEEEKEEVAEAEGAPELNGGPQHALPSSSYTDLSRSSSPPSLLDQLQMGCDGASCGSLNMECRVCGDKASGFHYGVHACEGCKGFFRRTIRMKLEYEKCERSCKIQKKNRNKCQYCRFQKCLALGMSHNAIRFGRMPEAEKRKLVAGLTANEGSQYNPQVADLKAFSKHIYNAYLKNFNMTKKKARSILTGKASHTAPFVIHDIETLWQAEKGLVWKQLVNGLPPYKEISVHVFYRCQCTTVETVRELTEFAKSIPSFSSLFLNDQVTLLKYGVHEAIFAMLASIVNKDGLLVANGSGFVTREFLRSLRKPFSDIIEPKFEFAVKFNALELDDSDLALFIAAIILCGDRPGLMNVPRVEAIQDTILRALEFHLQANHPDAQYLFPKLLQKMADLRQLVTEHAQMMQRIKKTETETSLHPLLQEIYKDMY
Description: Agonist activity at human PPARdelta assessed as receptor activation by cell based assay

Assay [4] deals with T4, Peroxisome proliferator-activated receptor delta (Mus musculus, UniProt P35396).
T4 sequence (P35396 whole entry): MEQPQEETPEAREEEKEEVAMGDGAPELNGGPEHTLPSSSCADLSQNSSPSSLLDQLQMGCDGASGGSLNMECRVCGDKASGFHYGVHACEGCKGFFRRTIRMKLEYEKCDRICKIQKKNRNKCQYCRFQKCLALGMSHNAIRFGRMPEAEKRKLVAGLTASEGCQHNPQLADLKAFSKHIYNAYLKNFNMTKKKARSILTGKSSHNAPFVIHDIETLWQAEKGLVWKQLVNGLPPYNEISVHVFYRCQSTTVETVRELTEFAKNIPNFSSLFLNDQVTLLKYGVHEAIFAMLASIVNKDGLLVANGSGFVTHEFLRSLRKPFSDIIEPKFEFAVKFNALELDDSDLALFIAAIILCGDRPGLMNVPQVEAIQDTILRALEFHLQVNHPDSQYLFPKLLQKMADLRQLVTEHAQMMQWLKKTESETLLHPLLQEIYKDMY
Description: Agonist activity at mouse PPARdelta assessed as receptor activation by cell based assay

Assay [5] deals with T5, Peroxisome proliferator-activated receptor gamma (Homo sapiens, UniProt P37231).
T5 sequence (P37231 whole entry): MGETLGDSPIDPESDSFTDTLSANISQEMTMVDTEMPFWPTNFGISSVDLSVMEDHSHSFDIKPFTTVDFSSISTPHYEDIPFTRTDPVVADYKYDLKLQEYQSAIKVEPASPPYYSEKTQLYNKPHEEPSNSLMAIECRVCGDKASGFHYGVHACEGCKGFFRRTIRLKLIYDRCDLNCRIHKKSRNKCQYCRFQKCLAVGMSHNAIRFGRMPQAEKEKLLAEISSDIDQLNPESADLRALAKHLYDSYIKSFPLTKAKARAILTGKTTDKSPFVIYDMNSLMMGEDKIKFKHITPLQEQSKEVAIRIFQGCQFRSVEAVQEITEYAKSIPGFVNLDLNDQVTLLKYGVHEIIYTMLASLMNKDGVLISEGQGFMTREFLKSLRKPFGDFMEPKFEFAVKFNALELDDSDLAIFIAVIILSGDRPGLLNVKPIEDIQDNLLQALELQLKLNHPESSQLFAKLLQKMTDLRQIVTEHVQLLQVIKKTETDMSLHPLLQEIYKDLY
Description: Agonist activity at human PPARgamma assessed as receptor activation by cell based assay

Assay [6] addresses T6, Peroxisome proliferator-activated receptor gamma (Mus musculus, UniProt P37238).
T6 sequence (P37238 whole entry): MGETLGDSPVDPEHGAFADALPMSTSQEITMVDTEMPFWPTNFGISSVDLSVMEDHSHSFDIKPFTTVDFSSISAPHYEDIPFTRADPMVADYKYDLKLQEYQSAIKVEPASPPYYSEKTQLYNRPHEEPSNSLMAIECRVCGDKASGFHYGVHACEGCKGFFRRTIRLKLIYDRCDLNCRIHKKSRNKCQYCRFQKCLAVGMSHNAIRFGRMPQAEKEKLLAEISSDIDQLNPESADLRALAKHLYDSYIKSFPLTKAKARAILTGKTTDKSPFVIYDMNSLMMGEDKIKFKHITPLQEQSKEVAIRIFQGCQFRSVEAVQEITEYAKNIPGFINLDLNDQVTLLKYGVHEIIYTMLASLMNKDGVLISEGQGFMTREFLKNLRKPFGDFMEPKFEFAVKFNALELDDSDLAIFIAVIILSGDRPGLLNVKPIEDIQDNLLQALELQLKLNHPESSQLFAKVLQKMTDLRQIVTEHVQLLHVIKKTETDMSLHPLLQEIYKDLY
Description: Agonist activity at mouse PPARgamma assessed as receptor activation by cell based assay

Assay [7] has as its target T7, Peroxisome proliferator-activated receptor alpha (Mus musculus) (UniProt P23204).
T7 sequence (whole entry): T2 sequence (P23204 whole entry)
Description: as §1

By pEC50 is commonly meant the EC50 on a negative log10 scale, so that one unit is a factor of ten. High values mean a small EC50, low ones a large EC50. In the case of `Cc1nc(-c2ccc(C(F)(F)F)cc2)sc1C(=O)NCc1ccc(NS(=O)(=O)CC(F)(F)F)cc1`, the pEC50 in assay [1] was 8.52; in assay [2], 7.22; in assay [3] it was under 5.00; in assay [4], under 5.00; in assay [5] it was 6.52; in assay [6], 6.52. The compound further came in with an Activity in assay [7] of 74%.

Consider `COCc1nc(-c2ccc(C(=O)NCc3ccc(OC(C)(C)C(=O)O)cc3)cc2)no1`, for which the pEC50 in assay [1] is 5.52; in assay [2] it was under 4.60.

For the compound `O=C(Cc1ccc(-c2ccc(Cl)cc2)cc1)NCc1ccc(NS(=O)(=O)C(F)(F)F)cc1`, the results for the negative-log EC50 (pEC50) in assay [1] and in assay [2] were 7.10 and 6.47, respectively. In assay [7], this compound registered an Activity of 0.34%.

With `Cc1ccc(S(=O)(=O)Nc2ccc(CNC(=O)c3sc(-c4ccc(C(F)(F)F)cc4)nc3C)cc2)cc1`, the pEC50 in assay [1] is 6.00; in assay [2], under 5.00; in assay [3] it was under 5.00; in assay [4] it was under 5.00; in assay [5], under 5.00; in assay [6], under 5.00.

Turning to `Cc1nc(-c2ccc(C(F)(F)F)cc2)sc1C(=O)NCc1ccc(NC(=O)C(F)(F)F)cc1`, the pEC50 in assay [1] was 6.35; in assay [2], under 5.00; in assay [3] it was under 5.00; in assay [4] it was under 5.00; in assay [5], under 5.00; in assay [6] it was under 5.00.

As to `Cc1nc(-c2ccc(C(F)(F)F)cc2)sc1C(=O)NCc1ccc(OCc2nn[nH]n2)cc1`, the pEC50 in assay [1], in assay [2], in assay [3], in assay [4], in assay [5] and in assay [6] was under 5.00 throughout.

In the case of `COCc1nc(-c2ccc(C(=O)NCc3ccc(NS(=O)(=O)C(F)(F)F)cc3)cc2)no1`, the pEC50 in assay [1] is 6.44; in assay [2], 6.15. Besides, the Activity in assay [7] was found to be 116%.

Take `Cc1nc(-c2ccc(C(F)(F)F)cc2)sc1C(=O)NCc1ccc(OC(C)(C)C(=O)O)cc1` [GW590735]: the pEC50 in assay [2] was 7.70; in assay [4] it was 5.77; in assay [5], 5.01; in assay [6], 5.01. Further, the Activity in assay [7] was 103%.

Regarding `N#Cc1ccc(-c2ccc(C(=O)NCc3ccc(NS(=O)(=O)C(F)(F)F)cc3)cc2)cc1`, the pEC50 in assay [1] is 7.70; in assay [2] it was 6.70. The compound further showed an Activity in assay [7] of 152%.

For `COc1ccc2sc(C(=O)NCc3ccc(OC(C)(C)C(=O)O)cc3)cc2c1`, the pEC50 in assay [1] is 5.22; in assay [2], under 4.60.

In the case of `Cc1csc(-c2ccc(C(=O)NCc3ccc(OC(C)(C)C(=O)O)cc3)cc2)n1`, the values for the pEC50 in assay [1] and in assay [2] were 5.30 and under 4.60, respectively.

`Cc1csc(-c2ccc(C(=O)NCc3ccc(NS(=O)(=O)C(F)(F)F)cc3)cc2)n1`: the pEC50 in assay [1] was 7.22; in assay [2], 7.10. In assay [7], this compound registered an Activity of 96%.

For the compound `CCCCS(=O)(=O)Nc1ccc(CNC(=O)c2sc(-c3ccc(C(F)(F)F)cc3)nc2C)cc1`, the negative-log EC50 (pEC50) is 6.49 in assay [1]; under 5.00 in assay [2]; under 5.00 in assay [3]; under 5.00 in assay [4]; 5.26 in assay [5]; 5.17 in assay [6].

Consider `CC(C)(Oc1ccc(CNC(=O)c2ccc(-c3ccc(Cl)cc3)cc2)cc1)C(=O)O`, for which the values for the pEC50 in assay [1] and in assay [2] were 7.15 and 6.00, respectively. For the same compound, in assay [7], the Activity is 130%.

Turning to `CC(C)(Oc1ccc(CNC(=O)c2ccc(-c3ccc(C#N)cc3)cc2)cc1)C(=O)O`, the pEC50 was 6.00 in assay [1] and under 4.60 in assay [2].

With `CC(C)(Oc1ccc(CNC(=O)Cc2ccc(-c3ccc(Cl)cc3)cc2)cc1)C(=O)O`, the negative logarithm of the EC50 (pEC50) in assay [1] was 5.55; in assay [2] it was under 4.60.

As for `Cc1nc(-c2ccc(C(F)(F)F)cc2)sc1C(=O)NCc1ccc(NS(=O)(=O)C(C)C)cc1`, the negative logarithm of the EC50 (pEC50) is 7.30 in assay [1]; under 5.00 in assay [2]; under 5.00 in assay [3]; under 5.00 in assay [4]; under 5.00 in assay [5]; under 5.00 in assay [6].

On to `Cc1nc(-c2ccc(C(F)(F)F)cc2)sc1C(=O)NCc1ccc(CNS(=O)(=O)C(F)(F)F)cc1`, for which the pEC50 in assay [1] was 7.10; in assay [2], under 5.00; in assay [3] it was under 5.00; in assay [4], under 5.00; in assay [5], under 5.00; in assay [6], under 5.00.

As for `COc1ccc2sc(C(=O)NCc3ccc(NS(=O)(=O)C(F)(F)F)cc3)cc2c1`, the pEC50 in assay [1] was 7.10; in assay [2], 6.89. In assay [7], the Activity came to 132%.

Turning to `Cc1nc(-c2ccc(C(F)(F)F)cc2)sc1C(=O)NCc1ccc(OC(C)(C)C(=O)NS(=O)(=O)C(F)(F)F)cc1`, the pEC50 in assay [1], in assay [2], in assay [3], in assay [4], in assay [5] and in assay [6] was under 5.00 throughout.

Regarding `Cc1nc(-c2ccc(C(F)(F)F)cc2)sc1C(=O)NCc1ccc(-c2c(O)c(=O)c2=O)cc1`, the pEC50 in assay [1], in assay [2], in assay [3], in assay [4], in assay [5] and in assay [6] was under 5.00 in each case.
